Consider 23 molecules from patent US10968232B2 (Merck Sharp & Dohme Corp., priority 2016, dated 2021).

SMILES strings stand for the structures.

The test deals with T1, human GPR40 (Homo sapiens, UniProt O14842).
T1 construct: expressed in transfected cells
In words: Inositol Phosphate Turnover (IP1) Assay. The test is classed as cell-based. The following applies: HEK cells stably expressing human GPR40; CisBio IP-One kit; 60 minutes at 37 degrees; read-out: Human IP1 EC50. How it is done:
Human GPR40 stable cell-lines were generated in HEK cells. The expression plasmids were transfected using lipofectamine (Life Technologies) following manufacturer's instructions. Stable cell-lines were generated following drug selection and single cell cloning. The assay was performed in 384-well format. HEK cells stably expressing human GPR40 were plated at 7500 cells per well in growth medium (DMEM/10% fetal calf serum). Cell plates were then incubated 16 hours at 37 degrees in a 5% CO2 incubator. Measurement of Inositol Phosphate Turnover (IP1) was performed using the CisBio IP-One kit (Part number 62IPAPEB). After the 16 hour incubation, the growth media was removed by centrifugation using the BlueWasher (AusWasher GUI Ver. v1.0.1.8) Protocol #21-“Light Dry” and 10 ul of stimulation buffer (prepared as described in the kit) was added to each well. In a separate plate, compounds were diluted in DMSO (200-fold over the final concentration in the assay well) and 50 nl was acoustically transferred to the appropriate well in the assay cell plate. The plates were then incubated for 60 minutes at 37 degrees in a 5% CO2 incubator. 10 ul of detection buffer (also prepared as described in the IP-One kit) was added to each well and the plates were incubated at room temperature for 60 minutes in the dark. The plates were then read in a Perkin Elmer EnVision or equivalent reader able to measure FRET. […] Data was normalized to % activity using a reference compound and EC50s determined using a standard 4-parameter fit.

T1 sequence (O14842 whole entry): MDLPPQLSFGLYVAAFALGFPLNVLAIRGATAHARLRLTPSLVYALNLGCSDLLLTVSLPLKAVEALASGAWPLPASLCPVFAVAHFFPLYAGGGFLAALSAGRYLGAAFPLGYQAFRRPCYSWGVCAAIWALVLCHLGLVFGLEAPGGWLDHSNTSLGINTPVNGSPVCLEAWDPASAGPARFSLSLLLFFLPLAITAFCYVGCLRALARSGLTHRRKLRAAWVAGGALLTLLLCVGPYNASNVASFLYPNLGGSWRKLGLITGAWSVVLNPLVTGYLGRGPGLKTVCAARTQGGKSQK

`C[C@H](C(=O)O)[C@H](c1ccc2c(c1F)OC1(CC2)CCN([C@H](C)c2cc(C(F)(F)F)ccc2Cl)CC1)C1CC1` (mixture of isomers) [Example 12, (2S,3R)-3-(1′-((RS)-1-(2-chloro-5-(trifluoro-methyl)phenyl)ethyl)-8-fluorospiro[chroman-2,4′-piperidin]-7-yl)-3-cyclopropyl-2-methylpropanoic acid]: the 50% effective concentration (EC50) came to 995 nM.

For the molecule `CC(c1cc(C(F)(F)F)ccc1F)N1CCC2(CCc3ccc([C@H](C4CC4)[C@H](C)C(=O)O)cc3O2)CC1` (mixture of isomers) [Example 28, (2S,3R)-3-cyclopropyl-3-(1′-((RS)-1-(2-fluoro-5-(trifluoromethyl)phenyl)ethyl)spiro[chroman-2,4′-piperidin]-7-yl)-2-methylpropanoic acid], the half-maximal effective concentration (EC50) is 11 nM.

`CC(c1cc(OC(F)(F)F)ccc1F)N1CCC2(CCc3ccc([C@H](C4CC4)[C@H](C)C(=O)O)cc3O2)CC1` (mixture of isomers) [Example 29, (2S,3R)-3-cyclopropyl-3-(1′-((RS)-1-(2-fluoro-5-(trifluoromethoxy)phenyl)ethyl)spiro[chroman-2,4′-piperidin]-7-yl)-2-methylpropanoic acid]: the EC50 amounted to 115 nM.

For `Cc1ccc(OC(F)(F)F)c(C(C)N2CCC3(CCc4ccc([C@H](C5CC5)[C@H](C)C(=O)O)cc4O3)CC2)c1` (mixture of isomers) [Example 112], the EC50 came to 21.5 nM.

Turning to `Cc1cc(-c2ccc(OC(F)(F)F)c(C(C)N3CCC4(CCc5ccc([C@H](C6CC6)[C@H](C)C(=O)O)cc5O4)CC3)c2)n(C)n1` (mixture of isomers) [Example 114, (2S,3R)-3-cyclopropyl-3-(1′-((RS)-1-(5-(1,3-dimethyl-1H-pyrazol-5-yl)-2-(trifluoromethoxy)phenyl)eth-yl)spiro[chroman-2,4′-piperidin]-7-yl)-2-methylpropanoic acid], the EC50 came out at 91.6 nM.

For the molecule `Cc1ccc(-c2ccc(OC(F)(F)F)c(C(C)N3CCC4(CCc5ccc([C@H](C6CC6)[C@H](C)C(=O)O)cc5O4)CC3)c2)o1` (mixture of isomers) [Example 122, (2S,3R)-3-cyclopropyl-2-methyl-3-(1′-((RS)-1-(5-(5-methylfuran-2-yl)-2-(trifluoromethoxy)phenyl)eth-yl)spiro[chroman-2,4′-piperidin]-7-yl)propanoic acid], the half-maximal effective concentration (EC50) worked out at 42.5 nM.

For the molecule `C[C@H](C(=O)O)[C@H](c1ccc2c(c1)OC1(CC2)CCN([C@@H](C)c2nccnc2C(F)(F)F)CC1)C1CC1` (mixture of isomers) [Example 125, (2S,3R)-3-cyclopropyl-2-methyl-3-(1′-((RS)-1-(3-(trifluoromethyl)pyrazin-2-yl)ethyl)spiro[chroman-2,4′-piperidin]-7-yl)propanoic Acid], the EC50 was 415 nM.

For `CC(c1cc(Cl)ccc1C(F)(F)F)N1CCC2(CCc3ccc([C@H](C4CC4)[C@H](C)C(=O)O)cc3O2)CC1` (mixture of isomers) [Example 5, (2S3R)-3-(1′-((RS)-1-(5-chloro-2-(trifluoromethyl)phenyl)ethyl)spiro[chroman-2,4′-piperidin]-7-yl)-3-cyclopropyl-2-methylpropanoic Acid], the EC50 was 2.71 nM.

As to `CC(c1cc(C(F)(F)F)ccc1C1CC1)N1CCC2(CCc3ccc([C@H](C4CC4)[C@H](C)C(=O)O)c(F)c3O2)CC1` (single isomer, unassigned) [Example 11, sodium (2S,3R)-3-cyclopropyl-3-(1′-((R or S)-1-(2-cyclopropyl-5-(trifluoromethyl)-phenyl)ethyl)-8-fluorospiro[chroman-2,4′-piperidin]-7-yl)-2-methylpropanoate], the EC50 was 0.434 nM.

`CC(c1cc(C(F)(F)F)ccc1C1CC1)N1CCC2(CCc3ccc([C@H](C4CC4)[C@H](C)C(=O)O)cc3O2)CC1` (single isomer, unassigned) [Example 13, sodium (2S,3R)-3-cyclo-propyl-3-(1′-((R or S)-1-(2-cyclopropyl-5-(trifluoromethyl)phenyl)ethyl)spiro[chroman-2,4′-piperidin]-7-yl)-2-methylpropanoale]: the EC50 stood at 3.6 nM.

`CC(c1cc(C(F)(F)F)ccc1C1CC1)N1CCC2(CCc3ccc([C@H](C4CC4)[C@H](C)C(=O)O)c(F)c3O2)CC1` (single isomer, unassigned) [Example 14, sodium (2S,3R)-3-cyclo-propyl-3-(1′-((S or R)-1-(2-cyclopropyl-5-(trifluoromethyl)phenyl)-ethyl)-8-fluorospiro [chroman-2,4′-piperidin]-7-yl)-2-methylpropanoate]: the EC50 worked out at 36.3 nM.

Regarding `CC(c1cc(C(F)(F)F)ccc1C1CC1)N1CCC2(CCc3ccc([C@H](C4CC4)[C@H](C)C(=O)O)cc3O2)CC1` (single isomer, unassigned) [Example 15, sodium (2S,3R)-3-cyclo-propyl-3-(1′-((S or R)-1-(2-cyclopropyl-5-(trifluoromethyl)phenyl)ethyl)spiro[chroman-2,4′-piperidin]-7-yl)-2-methylpropanoate], the EC50 worked out at 5.9 nM.

As to `CC(c1cc(F)cc(F)c1Cl)N1CCC2(CCc3ccc([C@H](C4CC4)[C@H](C)C(=O)O)c(F)c3O2)CC1` (single isomer, unassigned) [Example 17, (2S,3R)-3-(1′-((S or R)-1-(2-chloro-3,5-difluorophenyl)ethyl)-8-fluorospiro-[chroman-2,4′-piperidin]-7-yl)-3-cyclopropyl-2-methylpropanoic Acid], the EC50 was found to be 37.3 nM.

Take `CC(c1cc(F)cc(F)c1Cl)N1CCC2(CCc3ccc([C@H](C4CC4)[C@H](C)C(=O)O)cc3O2)CC1` (single isomer, unassigned) [Example 18]: the EC50 came to 46.1 nM.

`CC(c1cc(F)cc(F)c1Cl)N1CCC2(CCc3ccc([C@H](C4CC4)[C@H](C)C(=O)O)cc3O2)CC1` (single isomer, unassigned) [Example 19]: the EC50 is 37.6 nM.

For `CC(c1nc(C(F)(F)F)ccc1Cl)N1CCC2(CCc3ccc([C@H](C4CC4)[C@H](C)C(=O)O)cc3O2)CC1` (single isomer, unassigned) [Example 30], the EC50 came to 50.4 nM.

Turning to `CC(c1nc(C(F)(F)F)ccc1Cl)N1CCC2(CCc3ccc([C@H](C4CC4)[C@H](C)C(=O)O)cc3O2)CC1` (single isomer, unassigned) [Example 31], the EC50 was determined as 49.9 nM.

In the case of `CC(c1cc(Cl)ccc1OC(F)F)N1CCC2(CCc3ccc([C@H](C4CC4)[C@H](C)C(=O)O)c(F)c3O2)CC1` (single isomer, unassigned) [Example 33, (2S,3R)-3-(1′-((R or S)-1-(5-chloro-2-(difluoromethoxy)phenyl)ethyl)-8-fluorospiro-[chroman-2,4′-piperidin]-7-yl)-3-cyclopropyl-2-methylpropanoic Acid], the EC50 was found to be 50 nM.

Take `CC(c1cc(Cl)ccc1OC(F)F)N1CCC2(CCc3ccc([C@H](C4CC4)[C@H](C)C(=O)O)c(F)c3O2)CC1` (single isomer, unassigned) [Example 34, (2S,3R)-3-(1′-((S or R)-1-(5-chloro-2-(difluoro-methoxy)phenyl)ethyl)-8-fluorospiro-[chroman-2,4′-piperidin]-7-yl)-3-cyclopropyl-2-methylpropanoic acid]: the 50% effective concentration (EC50) was 8.9 nM.

`CC(c1ncccc1C(F)(F)F)N1CCC2(CCc3ccc([C@H](C4CC4)[C@H](C)C(=O)O)cc3O2)CC1` (single isomer, unassigned) [Example 43, (2S,3R)-3-cyclopropyl-2-methyl-3-(1′-((S or R)-1-(3-(trifluoromethyl)-pyridin-2-yl)ethyl)spiro[chroman-2,4′-piperidin]-7-yl)propanoic Acid]: the EC50 came out at 60.2 nM.

For the molecule `CC(c1ncccc1C(F)(F)F)N1CCC2(CCc3ccc([C@H](C4CC4)[C@H](C)C(=O)O)cc3O2)CC1` (single isomer, unassigned) [Example 44, (2S,3R)-3-cyclo-propyl-2-methyl-3-(1′-((R or S)-1-(3-(trifluoromethyl)pyridin-2-yl)ethyl)spiro-[chroman-2,4′-piperidin]-7-yl)propanoic acid], the EC50 came to 311 nM.

For `C[C@H](C(=O)O)[C@H](c1ccc2c(c1)OC1(CCCN(Cc3cc(C(F)(F)F)ccc3C(F)(F)F)CC1)CC2)C1CC1` (single isomer, unassigned) [Example 47, (2S,3R)-3-((R or S)-1-(2,5-bis(trifluoromethyl)benzyl)spiro[azepane-4,2′-chroman]-7′-yl)-3-cyclopropyl-2-methylpropanoic Acid], the EC50 was 2.64 nM.

For `C[C@H](C(=O)O)[C@H](c1ccc2c(c1)OC1(CCCN(Cc3cc(C(F)(F)F)ccc3C(F)(F)F)CC1)CC2)C1CC1` (single isomer, unassigned) [Example 48, sodium (2S,3R)-3-((R or S)-1-(2,5-bis (trifluoromethyl)benzyl)spiro[azepane-4,2′-chroman]-7′-yl)-3-cyclopropyl-2-methyl-propanoate], the concentration giving a half-maximal response (EC50) came out at 1.06 nM.
